Laboratory results published in article PMC6199744, “Development of Chemical Proteomics for the Folateome and Analysis of the Kinetoplastid Folateome” (ACS Infectious Diseases, 2018).
Read-outs that look alike come from different tables or passages of the source.

Key:
Format in all cases: binding
[1] = biological target: T1, HeLa cell extract proteins (Homo sapiens, UniProt O43324)
T1 construct: endogenous in cells; host or cells: HeLa cell extract
T1 sequence (O43324 1-174): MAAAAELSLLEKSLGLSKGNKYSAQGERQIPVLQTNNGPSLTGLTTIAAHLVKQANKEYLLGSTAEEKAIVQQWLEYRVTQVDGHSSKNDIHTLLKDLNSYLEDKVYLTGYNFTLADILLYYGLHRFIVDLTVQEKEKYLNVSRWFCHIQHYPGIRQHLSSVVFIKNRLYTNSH

[2] = biological target: T2, HeLa cell extract proteins (Homo sapiens, UniProt O60664)
T2 construct: endogenous in cells; host or cells: HeLa cell extract
T2 sequence (O60664 1-434): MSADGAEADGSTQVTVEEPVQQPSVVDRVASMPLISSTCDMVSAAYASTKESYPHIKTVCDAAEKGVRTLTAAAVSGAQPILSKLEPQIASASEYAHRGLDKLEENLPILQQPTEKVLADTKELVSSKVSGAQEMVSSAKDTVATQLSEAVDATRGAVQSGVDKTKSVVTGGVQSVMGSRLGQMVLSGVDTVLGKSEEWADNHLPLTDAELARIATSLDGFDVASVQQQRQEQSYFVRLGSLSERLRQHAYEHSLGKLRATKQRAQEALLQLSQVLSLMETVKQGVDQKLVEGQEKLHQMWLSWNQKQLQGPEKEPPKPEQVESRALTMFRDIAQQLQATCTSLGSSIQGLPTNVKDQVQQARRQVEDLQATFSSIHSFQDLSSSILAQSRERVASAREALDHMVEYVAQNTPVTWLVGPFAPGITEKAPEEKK

[3] = biological target: T3, HeLa cell extract proteins (Homo sapiens, UniProt P07195)
T3 construct: endogenous in cells; host or cells: HeLa cell extract
T3 sequence (P07195 whole entry): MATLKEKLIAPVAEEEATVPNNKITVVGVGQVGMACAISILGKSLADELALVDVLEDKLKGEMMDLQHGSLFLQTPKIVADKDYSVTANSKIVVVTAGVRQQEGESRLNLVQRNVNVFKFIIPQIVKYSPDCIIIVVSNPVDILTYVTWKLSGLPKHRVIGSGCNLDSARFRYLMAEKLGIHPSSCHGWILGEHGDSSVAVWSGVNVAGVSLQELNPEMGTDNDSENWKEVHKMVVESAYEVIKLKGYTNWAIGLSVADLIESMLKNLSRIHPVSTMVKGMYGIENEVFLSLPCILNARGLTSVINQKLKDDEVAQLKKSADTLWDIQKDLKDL

[4] = biological target: T4, HeLa cell extract proteins (Homo sapiens, UniProt P10809)
T4 construct: endogenous in cells; host or cells: HeLa cell extract
T4 sequence (P10809 27-573): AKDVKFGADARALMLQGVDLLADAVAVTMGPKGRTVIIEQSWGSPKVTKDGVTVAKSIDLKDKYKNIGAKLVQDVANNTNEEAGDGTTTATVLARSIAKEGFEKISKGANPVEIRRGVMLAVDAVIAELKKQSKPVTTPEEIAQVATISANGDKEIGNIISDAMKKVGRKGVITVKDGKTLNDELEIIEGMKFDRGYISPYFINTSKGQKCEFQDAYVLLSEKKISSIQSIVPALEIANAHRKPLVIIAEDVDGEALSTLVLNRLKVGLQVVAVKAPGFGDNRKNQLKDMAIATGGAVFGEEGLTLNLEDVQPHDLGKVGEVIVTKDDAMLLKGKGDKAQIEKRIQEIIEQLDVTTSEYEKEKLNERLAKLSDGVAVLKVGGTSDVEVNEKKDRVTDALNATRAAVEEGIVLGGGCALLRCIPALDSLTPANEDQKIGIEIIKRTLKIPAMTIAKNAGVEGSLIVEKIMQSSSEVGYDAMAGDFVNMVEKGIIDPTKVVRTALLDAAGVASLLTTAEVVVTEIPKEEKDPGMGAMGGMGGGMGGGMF

[5] = biological target: T5, HeLa cell extract proteins (Homo sapiens, UniProt Q16658)
T5 construct: endogenous in cells; host or cells: HeLa cell extract

[6] = biological target: T6, HeLa cell extract proteins (Homo sapiens, UniProt Q969S8)
T6 construct: endogenous in cells; host or cells: HeLa cell extract
T6 sequence (Q969S8 1-669): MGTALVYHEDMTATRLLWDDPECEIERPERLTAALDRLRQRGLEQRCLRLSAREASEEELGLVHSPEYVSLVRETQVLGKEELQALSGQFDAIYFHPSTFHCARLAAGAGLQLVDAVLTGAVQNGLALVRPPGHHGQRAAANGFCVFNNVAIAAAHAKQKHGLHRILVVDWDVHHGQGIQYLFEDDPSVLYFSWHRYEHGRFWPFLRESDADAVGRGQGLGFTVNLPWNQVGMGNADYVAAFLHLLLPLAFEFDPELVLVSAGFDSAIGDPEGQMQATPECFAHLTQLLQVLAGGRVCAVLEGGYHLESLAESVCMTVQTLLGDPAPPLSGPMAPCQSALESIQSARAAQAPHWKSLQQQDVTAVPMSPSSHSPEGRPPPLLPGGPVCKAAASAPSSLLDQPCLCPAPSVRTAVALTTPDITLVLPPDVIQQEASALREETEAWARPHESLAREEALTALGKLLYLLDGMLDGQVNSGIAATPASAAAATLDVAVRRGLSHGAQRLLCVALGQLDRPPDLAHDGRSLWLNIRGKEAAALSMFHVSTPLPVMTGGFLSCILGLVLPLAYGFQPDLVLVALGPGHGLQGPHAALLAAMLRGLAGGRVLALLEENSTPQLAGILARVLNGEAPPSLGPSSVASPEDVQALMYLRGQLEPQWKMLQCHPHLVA

[7] = biological target: T7, HeLa cell extract proteins (Homo sapiens, UniProt Q9BXR0)
T7 construct: endogenous in cells; host or cells: HeLa cell extract
T7 sequence (Q9BXR0 1-403): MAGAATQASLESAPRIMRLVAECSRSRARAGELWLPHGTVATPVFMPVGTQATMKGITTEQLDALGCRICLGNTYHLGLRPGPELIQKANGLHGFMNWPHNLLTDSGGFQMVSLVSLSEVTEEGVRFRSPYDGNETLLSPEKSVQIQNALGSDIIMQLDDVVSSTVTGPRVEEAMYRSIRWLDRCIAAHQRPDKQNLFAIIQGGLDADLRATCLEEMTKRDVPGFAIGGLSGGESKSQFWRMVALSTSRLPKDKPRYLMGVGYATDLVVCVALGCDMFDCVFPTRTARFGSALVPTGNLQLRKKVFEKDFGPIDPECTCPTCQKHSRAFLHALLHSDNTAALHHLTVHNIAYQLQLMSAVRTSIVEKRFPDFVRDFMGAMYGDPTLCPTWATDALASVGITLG

[8] = biological target: T8, HeLa cell extract proteins (Homo sapiens, UniProt Q9NSI6)
T8 construct: endogenous in cells; host or cells: HeLa cell extract
T8 sequence (Q9NSI6 whole entry): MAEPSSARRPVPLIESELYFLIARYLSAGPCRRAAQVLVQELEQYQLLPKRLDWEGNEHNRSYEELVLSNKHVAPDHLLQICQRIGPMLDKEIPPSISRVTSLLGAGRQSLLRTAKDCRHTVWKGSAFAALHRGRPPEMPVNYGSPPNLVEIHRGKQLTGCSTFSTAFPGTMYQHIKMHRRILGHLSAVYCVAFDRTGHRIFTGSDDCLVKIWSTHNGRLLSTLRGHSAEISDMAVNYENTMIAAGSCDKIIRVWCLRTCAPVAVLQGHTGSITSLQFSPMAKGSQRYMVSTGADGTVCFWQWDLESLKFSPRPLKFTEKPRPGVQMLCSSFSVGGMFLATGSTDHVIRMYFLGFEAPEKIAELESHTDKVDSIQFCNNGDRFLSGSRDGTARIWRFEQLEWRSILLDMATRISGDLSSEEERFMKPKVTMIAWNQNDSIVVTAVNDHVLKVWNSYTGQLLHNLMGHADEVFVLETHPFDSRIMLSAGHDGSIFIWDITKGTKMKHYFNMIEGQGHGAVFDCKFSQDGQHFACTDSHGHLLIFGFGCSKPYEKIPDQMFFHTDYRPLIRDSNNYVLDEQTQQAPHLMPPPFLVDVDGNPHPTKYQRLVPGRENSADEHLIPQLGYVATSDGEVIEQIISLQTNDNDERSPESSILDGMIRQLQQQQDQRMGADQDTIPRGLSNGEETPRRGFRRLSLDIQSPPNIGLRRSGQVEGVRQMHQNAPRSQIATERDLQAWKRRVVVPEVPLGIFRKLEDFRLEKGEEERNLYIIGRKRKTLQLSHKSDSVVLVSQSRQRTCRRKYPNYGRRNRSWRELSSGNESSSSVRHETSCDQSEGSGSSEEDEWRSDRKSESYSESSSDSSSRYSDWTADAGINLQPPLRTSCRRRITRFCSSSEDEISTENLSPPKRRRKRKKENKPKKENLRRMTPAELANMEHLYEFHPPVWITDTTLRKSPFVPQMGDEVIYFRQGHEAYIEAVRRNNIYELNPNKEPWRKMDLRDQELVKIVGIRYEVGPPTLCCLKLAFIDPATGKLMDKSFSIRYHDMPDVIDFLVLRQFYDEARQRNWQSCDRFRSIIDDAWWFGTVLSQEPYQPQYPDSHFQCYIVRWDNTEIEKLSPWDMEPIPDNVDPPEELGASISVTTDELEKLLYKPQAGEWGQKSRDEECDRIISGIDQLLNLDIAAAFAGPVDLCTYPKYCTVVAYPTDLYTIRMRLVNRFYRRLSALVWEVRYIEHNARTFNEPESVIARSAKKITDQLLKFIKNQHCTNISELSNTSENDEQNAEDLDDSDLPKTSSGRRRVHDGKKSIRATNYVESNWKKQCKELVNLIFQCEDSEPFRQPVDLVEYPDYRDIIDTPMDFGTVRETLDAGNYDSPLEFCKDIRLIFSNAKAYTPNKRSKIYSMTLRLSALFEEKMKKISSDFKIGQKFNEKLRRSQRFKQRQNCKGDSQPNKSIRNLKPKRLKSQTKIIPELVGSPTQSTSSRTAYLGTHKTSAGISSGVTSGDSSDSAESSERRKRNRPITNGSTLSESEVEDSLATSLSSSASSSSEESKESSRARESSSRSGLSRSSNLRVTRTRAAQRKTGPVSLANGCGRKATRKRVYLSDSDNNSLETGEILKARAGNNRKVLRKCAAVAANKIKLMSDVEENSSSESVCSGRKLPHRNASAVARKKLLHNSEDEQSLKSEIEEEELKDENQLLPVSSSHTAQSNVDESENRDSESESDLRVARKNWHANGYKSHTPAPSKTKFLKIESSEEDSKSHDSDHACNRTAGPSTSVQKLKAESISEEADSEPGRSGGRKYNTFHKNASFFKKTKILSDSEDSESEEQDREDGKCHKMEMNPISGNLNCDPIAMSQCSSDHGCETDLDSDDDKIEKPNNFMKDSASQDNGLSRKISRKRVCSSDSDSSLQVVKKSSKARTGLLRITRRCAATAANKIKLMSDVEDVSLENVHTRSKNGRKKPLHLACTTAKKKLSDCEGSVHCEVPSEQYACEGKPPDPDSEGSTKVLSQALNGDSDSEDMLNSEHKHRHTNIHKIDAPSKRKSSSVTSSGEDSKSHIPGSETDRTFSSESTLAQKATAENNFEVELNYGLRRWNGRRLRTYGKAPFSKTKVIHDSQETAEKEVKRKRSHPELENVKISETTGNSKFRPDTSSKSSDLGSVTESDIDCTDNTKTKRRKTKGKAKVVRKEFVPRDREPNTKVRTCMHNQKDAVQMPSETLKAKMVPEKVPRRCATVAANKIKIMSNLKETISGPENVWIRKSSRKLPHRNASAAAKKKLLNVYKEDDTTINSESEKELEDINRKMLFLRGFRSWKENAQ

[9] = HeLa, protein EEF1E1 (EUKARYOTIC TRANSLATION ELONGATION FACTOR 1 EPSILON-1)
[10] = HeLa, protein LDHB (L-LACTATE DEH[…] CHAIN.)

| Structure (SMILES) | fold changes relative to vehicle control ([2]; protein M6PRBP1, HeLa) | fold changes relative to vehicle control ([3]; HeLa, captured protein LDHB) | fold changes relative to vehicle control ([4]; HeLa, protein HSPD1) | fold changes relative to vehicle control ([5]; protein FSCN1, HeLa) | fold changes relative to vehicle control ([6]; HeLa, protein HDAC10) | fold changes relative to vehicle control ([7]; protein QTRT1, HeLa) | fold changes relative to vehicle control ([8]; HeLa, protein BRWD1) | fold changes relative to vehicle control ([1]; protein EEF1E1, HeLa) | fold changes relative to vehicle control ([4]; protein HSPD1, HeLa) | fold changes relative to vehicle control ([6]; captured protein HDAC10, HeLa) | fold changes relative to vehicle control ([8]; captured protein BRWD1, HeLa) | also measured |
| --- | --- | --- | --- | --- | --- | --- | --- | --- | --- | --- | --- | --- |
| Nc1nc2c(c(=O)[nH]1)N(C=O)C(CNc1ccc(C(=O)N[C@@H](CCC(=O)O)C(=O)O)cc1)CN2 (some centres unmarked) [LEU, leucovorin] | 1 | 1.21 | 1.12 | 0.95 | 0.95 | 0.96 | 0.93 |  |  |  |  | fold changes relative to vehicle control [1, 9]: 0.84 |
| Nc1nc2[nH]cc(CCc3ccc(C(=O)N[C@@H](CCC(=O)O)C(=O)O)cc3)c2c(=O)[nH]1 [PTX, pemetrexed] |  |  |  |  |  |  |  |  |  |  |  | fold changes relative to vehicle control [1]: 0.89; fold changes relative to vehicle control [2]: 1.06; fold changes relative to vehicle control [3]: 1.35; fold changes relative to vehicle control [4]: 1.14; fold changes relative to vehicle control [5]: 1.08; fold changes relative to vehicle control [6]: 0.85; fold changes relative to vehicle control [7]: 0.84; fold changes relative to vehicle control [8]: 1.07 |
| CCCCCCOc1ccc(Cc2cnc(N)nc2N)cc1 [compound 1] | 1.23 |  |  | 1.28 |  | 0.51 |  | 0.9 | 1.32 | 0.82 | 1.01 | fold changes relative to vehicle control [3, 10]: 1.75 fold |
| CCCCCCOc1cccc(Cc2cnc(N)nc2N)c1 [compound 2] | 1.68 |  |  | 1.96 |  | 1.05 |  | 1.19 | 1.71 | 0.88 | 1.03 | fold changes relative to vehicle control ([3]; HeLa, protein LDHB (L-LACTATE DEHYDROGENASE B CHAIN.)): 2.97 fold |
| Nc1nc2cccc(-c3ccccc3)c2n1Cc1ccc(Cl)c(Cl)c1 [compound 3] | 0.94 |  |  | 0.96 |  | 1.03 |  | 1.12 | 1.03 | 0.9 | 0.9 | fold changes relative to vehicle control [3, 10]: 0.94 fold |
| NCCOCCOCC(=O)Nc1nc2ncc(CNc3ccc(C(=O)NC(CCC(=O)O)C(=O)O)cc3)nc2c(=O)[nH]1 (centres unmarked) [compound 6] | 1.27 | 1.42 | 1.21 | 1.42 | 0.82 | 0.28 | 1.05 |  |  |  |  | fold changes relative to vehicle control [1]: 1.02 |
| NCCCNc1ccc(C(=O)NC(CCC(=O)O)C(=O)O)cc1 (centres unmarked) [compound 7] | 0.93 | 0.96 | 1 | 0.78 | 0.95 | 0.98 | 0.92 |  |  |  |  | fold changes relative to vehicle control [1, 9]: 0.98 |
